{"source": "paper PMC4791274", "about": "“Cerdulatinib, a novel dual SYK/JAK kinase inhibitor, has broad anti-tumor activity in both ABC and GCB types of diffuse large B cell lymphoma” (Oncotarget, 2015)", "origin": "cited, not measured here", "key": {"R/R patients (DLBCL)": {"tested_on": "R/R patients (DLBCL)", "design": "method as in PMID 17389337", "settings": "number of patients, in 55 R/R patients; cited from earlier work"}, "DLBCL patients": {"tested_on": "DLBCL patients", "settings": "available clinical data; cited from earlier work"}, "[1]": {"tested_on": "relapsed/refractory (R/R) DLBCL patients", "design": "method as in PMID 19965662", "settings": "5 of 23 R/R DLBCL patients, phase I/II; cited from earlier work"}, "LY3 cell line": {"tested_on": "LY3 cell line", "design": "method as in PMID 22025527", "settings": "cited from earlier work"}, "DHL2 cell line": {"tested_on": "DHL2 cell line", "design": "method as in PMID 22025527", "settings": "cited from earlier work"}, "LY4 cell line": {"tested_on": "LY4 cell line", "design": "method as in PMID 22025527", "settings": "LY4, lacks surface immunoglobulins; cited from earlier work"}, "DLBCL cells": {"tested_on": "DLBCL cells", "settings": "cited from earlier work"}, "R/R DLBCL": {"tested_on": "R/R DLBCL", "design": "method as in PMID 26193343", "settings": "phase II, 80 R/R DLBCL; cited from earlier work"}}}
{"smiles": "Cn1cc(C2=C(c3cn(C4CCN(Cc5ccccn5)CC4)c4ccccc34)C(=O)NC2=O)c2ccccc21", "note": "[Enzastaurin]", "values": [{"measurement": "complete responses", "setting": "R/R patients (DLBCL)", "value": 3}, {"measurement": "stable disease", "setting": "R/R patients (DLBCL)", "value": 1}, {"measurement": "fraction of DLBCL patients in whom active", "setting": "DLBCL patients", "value": "≤ 20", "unit": "%"}]}
{"smiles": "COc1cc(Nc2ncc(F)c(Nc3ccc4c(n3)N(COP(=O)(O)O)C(=O)C(C)(C)O4)n2)cc(OC)c1OC", "note": "[Fostamatinib]", "values": [{"measurement": "objective response", "setting": "[1]", "value": 22, "unit": "%"}, {"measurement": "fraction of DLBCL patients in whom active", "setting": "DLBCL patients", "value": "≤ 20", "unit": "%"}]}
{"smiles": "Cc1cccc(Nc2nc(N[C@@H]3CCCC[C@@H]3N)ncc2C(N)=O)c1", "note": "[PRT060318]", "values": [{"measurement": "sensitivity to SYK selective inhibitor", "setting": "LY3 cell line", "value": "insensitive"}, {"measurement": "sensitivity to SYK selective inhibitor", "setting": "DHL2 cell line", "value": "insensitive"}, {"measurement": "sensitivity to selective SYK inhibition", "setting": "LY4 cell line", "value": "resistant"}, {"measurement": "impact on cell viability", "setting": "DLBCL cells", "value": "minimal impact on cell viability"}]}
{"smiles": "Cc1nc(Nc2ncc(C(=O)Nc3c(C)cccc3Cl)s2)cc(N2CCN(CCO)CC2)n1", "note": "[dasatinib]", "values": [{"measurement": "impact on cell viability", "setting": "DLBCL cells", "value": "minimal impact on cell viability"}]}
{"smiles": "C=CC(=O)N1CCC[C@@H](n2nc(-c3ccc(Oc4ccccc4)cc3)c3c(N)ncnc32)C1", "note": "[ibrutinib]", "values": [{"measurement": "response rate of all DLBCL tumors", "setting": "R/R DLBCL", "value": 19, "unit": "%"}, {"measurement": "responsive tumors, ABC subtype", "setting": "R/R DLBCL", "value": 37, "unit": "%"}, {"measurement": "responsive tumors, GCB subtype", "setting": "R/R DLBCL", "value": 5, "unit": "%"}]}
